Data taken from publication PMC5360941, “Simultaneous Determination and Pharmacokinetic Study of Quercetin, Luteolin, and Apigenin in Rat Plasma after Oral Administration of Matricaria chamomilla L. Extract by HPLC-UV” (Evidence-based Complementary and Alternative Medicine : eCAM, 2017).

What was measured:
[1] = Pharmacokinetic study in rats after oral administration of M. chamomilla extract (HPLC-UV of plasma); assay type: in vivo, Male Sprague-Dawley rats; conditions: oral M. chamomilla extract (quercetin 8.51 mg/kg, luteolin 56.49 mg/kg, apigenin 13.82 mg/kg), mean ± SD; for AUC(0-inf) / AUC(0-t) / Cmax / Tmax / half-life: male, Sprague-Dawley, rat; for AUC(0-inf) / T1/2, elimination half-life: n = 6; for AUC(0-t): n = 6, read-out: AUC0–12; for Cmax: n = 6, read-out: Cmax, maximum plasma concentration; for Tmax: noncompartmental, n = 6, read-out: Tmax, time to reach the maximum plasma concentration; for half-life: po, n = 6, read-out: T1/2, elimination half-life (converted)
Method: All analyses were performed on a Shimadzu HPLC system, equipped with LC-20AT pump, a Shimadzu SCL-10A system controller, and a SPD-20A DAD-UV detector. The HPLC analysis was performed on an Agilent Eclipse XDB-C18 column (250 mm × 4.6 mm, 5 μm) with a mobile phase consisting of methanol and 0.2% phosphoric acid (50 : 50, v/v) with a constant rate of 1.0 ml/min. The injection volume was 10 μl and the column temperature was set at 25°C. The wavelength was set at 350 nm for quantitative analysis; the proportion of components in the mobile phase was optimized to obtain a well separation of quercetin, luteolin, apigenin, and kaempferol (IS).
An aliquot of 100 μL rat plasma was transferred to a 1.5 mL plastic tube to which was added 10 μL IS (22.52 μg/ml) for processing. After being vortex-mixed for 30 seconds, the plasma sample was then extracted with 800 μl of ethyl acetate and centrifuged at 18000g for 10 min, where ethyl acetate acted as a deproteinization-extraction agent. The procedure of extraction was performed two times. The organic layer was dried at 40°C under nitrogen stream. The residue was reconstituted in 100 μL of methanol solution, vortexed for 1 min, and centrifuged at 18000g for 10 min. The supernatant transferred to a glass insert, and 10 μL of the sample was injected into the HPLC column for analysis. The method of sample preparation was also applied for determination of accuracy, precision, and recovery.
Male Sprague-Dawley rats (body weight 160 ± 20 g) were purchased from Beijing Vital River Laboratory Animal Technology (Beijing, China). Rats were housed in a temperature- and humidity-controlled environment (25°C, 65% RH) and maintained on a 12-hour light/dark cycle for 3 days with free access to food and water before starting the experiment. The animal experiments were performed in accordance with the principles of the International Guide for the Care and Use of Laboratory Animals and were approved by the Committee on Animal Care and Usage of the Beijing University of Chinese Medicine (number SYXK 2011-0024).
The extracts of M. chamomilla (quercetin was 8.51 mg/kg, luteolin was 56.49 mg/kg, and apigenin was 13.82 mg/kg) freshly prepared in 0.5% CMC-Na solution were orally administered to six rats. Blood samples (0.5 mL) were collected from the ocular fundus veins of rats before administration and after 10, 20, 30, and 45 min and 1, 1.5, 2, 4, 6, 8, and 12 h after oral administration of M. chamomilla extract. The plasma was immediately centrifuged at 3200g for 10 min to separate out plasma and then stored frozen at −20°C until analysis.
The pharmacokinetic parameters of quercetin, luteolin, and apigenin were calculated by Kinetica 4.4 software (Thermo Scientific, USA). Noncompartmental analysis was used to determine standard pharmacokinetic parameters of analytes. All the results were expressed as means ± standard deviation (SD) of six replicates.

[2] = Stability of the analytes in rat plasma (QC samples under different storage conditions); assay type: in vitro ADME; conditions: for Stability in plasma (in words): plasma stored at 20°C for 24 h, −20°C for 30 days, and after three freeze-thaw cycles, low, medium, high concentrations, stable = 85–115% of initial; for Freeze-thaw stability, found conc. / Short-term stability, found conc. / Long-term stability, found conc.: rat plasma, n = 6; for Freeze-thaw stability, found conc.: 3 freeze-thaw cycles; for Short-term stability, found conc.: 24 h at room temperature; for Long-term stability, found conc.: 30 days at −20°C
Method: QC samples were prepared in the same way as the calibration samples, representing three different level concentrations (low, medium, and high) of quercetin in plasma at 0.57, 2.84, and 9.09 μg/ml, luteolin at 0.56, 2.80, and 8.96 μg/ml, and apigenin at 0.53, 2.65, and 8.48 μg/ml, respectively. The stability of the analytes in plasma was investigated by determining QC plasma samples of the three concentration levels under different storage conditions: 24 h at room temperature, three freeze (−20°C) and thaw (room temperature) cycles, stored at −20°C for 30 days. They were considered stable when 85–115% of the initial concentrations were got. All stability testing QC samples were determined by using the calibration curve of freshly prepared standard samples.

[3] = high QC (spiked 9.09 quercetin, 8.96 luteolin, 8.48 apigenin μg/ml)
[4] = low QC (spiked 0.57 quercetin, 0.56 luteolin, 0.53 apigenin μg/ml)
[5] = medium QC (spiked 2.84 quercetin, 2.80 luteolin, 2.65 apigenin μg/ml)

Row | Structure (SMILES) | AUC(0-inf) [1] | AUC(0-t) [1] | Cmax [1] | Tmax [1] | half-life [1] | T1/2, elimination half-life [1] | Stability in plasma (in words) [2] | Freeze-thaw stability, found conc. [2, 3] | Freeze-thaw stability, found conc. [2, 4] | Freeze-thaw stability, found conc. [2, 5] | Short-term stability, found conc. [2, 3] | Short-term stability, found conc. [2, 4] | Short-term stability, found conc. [2, 5] | Long-term stability, found conc. [2, 3] | Long-term stability, found conc. [2, 4] | Long-term stability, found conc. [2, 5]
1 | O=c1cc(-c2ccc(O)cc2)oc2cc(O)cc(O)c12 [Apigenin, apigenin] | 5030 ± 1720 ng·h/mL | 2910 ± 740 ng·h/mL | 420 ± 110 ng/mL | ~0.51 h | ~8.82 h | 8.82 ± 4.15 h | stable | 7.87 ± 0.50 µg/mL | 0.48 ± 0.02 µg/mL | 2.60 ± 0.14 µg/mL | 8.31 ± 0.72 µg/mL | 0.50 ± 0.04 µg/mL | 2.64 ± 0.16 µg/mL | 8.27 ± 0.62 µg/mL | 0.46 ± 0.04 µg/mL | 2.61 ± 0.13 µg/mL
2 | O=c1c(O)c(-c2ccc(O)c(O)c2)oc2cc(O)cc(O)c12 [Quercetin, quercetin] | 3880 ± 1000 ng·h/mL | 1790 ± 290 ng·h/mL | 290 ± 60 ng/mL | ~0.79 h | ~13.6 h | – | stable | 9.24 ± 0.55 µg/mL | 0.63 ± 0.01 µg/mL | 3.09 ± 0.09 µg/mL | 9.15 ± 0.69 µg/mL | 0.63 ± 0.01 µg/mL | 3.09 ± 0.18 µg/mL | 9.59 ± 0.53 µg/mL | 0.62 ± 0.03 µg/mL | 3.10 ± 0.16 µg/mL
3 | O=c1cc(-c2ccc(O)c(O)c2)oc2cc(O)cc(O)c12 [Luteolin, luteolin] | 19900 ± 5060 ng·h/mL | 16000 ± 2380 ng·h/mL | 3040 ± 600 ng/mL | ~0.42 h | ~4.43 h | 4.43 ± 1.84 h | stable | 8.56 ± 0.54 µg/mL | 0.62 ± 0.02 µg/mL | 2.91 ± 0.15 µg/mL | 8.96 ± 0.76 µg/mL | 0.62 ± 0.01 µg/mL | 2.94 ± 0.14 µg/mL | 8.99 ± 0.65 µg/mL | 0.61 ± 0.03 µg/mL | 2.92 ± 0.15 µg/mL
